Experimental data as given in ChEMBL document CHEMBL1777705, “Naphthol derivatives as TRPV1 inhibitors for the treatment of urinary incontinence” (Bioorg Med Chem Lett, 2011).
In brackets after ≈: the same amount, converted by molar mass.

What was measured:
[1] = target: Transient receptor potential cation channel subfamily V member 1 (Rattus norvegicus, UniProt O35433); test: Antagonist activity at rat TRPV1 expressed in CHO cells co-expressing aequorin and CRE-luciferase reporter gene assessed as inhibition of capsaicin-induced calcium flux; type: functional, cell-based
Transient receptor potential cation channel subfamily V member 1 (Rattus norvegicus, UniProt O35433), sequence (O35433 whole entry): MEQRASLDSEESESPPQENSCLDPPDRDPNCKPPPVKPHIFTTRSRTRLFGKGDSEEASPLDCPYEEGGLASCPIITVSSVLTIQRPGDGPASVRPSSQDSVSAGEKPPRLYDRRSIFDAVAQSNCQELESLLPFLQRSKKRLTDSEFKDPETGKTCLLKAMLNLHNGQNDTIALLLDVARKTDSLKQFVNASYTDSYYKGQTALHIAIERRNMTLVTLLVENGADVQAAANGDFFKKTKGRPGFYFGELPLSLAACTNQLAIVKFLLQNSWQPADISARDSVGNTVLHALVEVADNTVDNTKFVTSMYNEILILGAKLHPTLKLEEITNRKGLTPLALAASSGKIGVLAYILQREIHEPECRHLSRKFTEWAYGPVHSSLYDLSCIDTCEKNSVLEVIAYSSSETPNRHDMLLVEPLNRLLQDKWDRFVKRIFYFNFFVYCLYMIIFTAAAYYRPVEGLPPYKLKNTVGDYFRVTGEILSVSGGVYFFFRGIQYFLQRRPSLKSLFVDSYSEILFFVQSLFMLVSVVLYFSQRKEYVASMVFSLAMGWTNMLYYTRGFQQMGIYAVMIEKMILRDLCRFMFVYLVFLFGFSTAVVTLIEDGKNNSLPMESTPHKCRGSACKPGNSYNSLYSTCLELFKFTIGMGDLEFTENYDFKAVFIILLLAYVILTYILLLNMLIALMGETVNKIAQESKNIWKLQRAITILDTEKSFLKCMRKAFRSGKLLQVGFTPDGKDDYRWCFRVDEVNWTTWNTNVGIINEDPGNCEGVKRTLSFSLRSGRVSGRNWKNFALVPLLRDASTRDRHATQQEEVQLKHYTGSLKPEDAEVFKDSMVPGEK

[2] = target: Transient receptor potential cation channel subfamily V member 1 (Homo sapiens, UniProt Q8NER1); test: Antagonist activity at human TRPV1 expressed in CHO cells co-expressing aequorin and CRE-luciferase reporter gene assessed as inhibition of capsaicin-induced calcium flux; type: functional, cell-based
Transient receptor potential cation channel subfamily V member 1 (Homo sapiens, UniProt Q8NER1), sequence (Q8NER1 whole entry): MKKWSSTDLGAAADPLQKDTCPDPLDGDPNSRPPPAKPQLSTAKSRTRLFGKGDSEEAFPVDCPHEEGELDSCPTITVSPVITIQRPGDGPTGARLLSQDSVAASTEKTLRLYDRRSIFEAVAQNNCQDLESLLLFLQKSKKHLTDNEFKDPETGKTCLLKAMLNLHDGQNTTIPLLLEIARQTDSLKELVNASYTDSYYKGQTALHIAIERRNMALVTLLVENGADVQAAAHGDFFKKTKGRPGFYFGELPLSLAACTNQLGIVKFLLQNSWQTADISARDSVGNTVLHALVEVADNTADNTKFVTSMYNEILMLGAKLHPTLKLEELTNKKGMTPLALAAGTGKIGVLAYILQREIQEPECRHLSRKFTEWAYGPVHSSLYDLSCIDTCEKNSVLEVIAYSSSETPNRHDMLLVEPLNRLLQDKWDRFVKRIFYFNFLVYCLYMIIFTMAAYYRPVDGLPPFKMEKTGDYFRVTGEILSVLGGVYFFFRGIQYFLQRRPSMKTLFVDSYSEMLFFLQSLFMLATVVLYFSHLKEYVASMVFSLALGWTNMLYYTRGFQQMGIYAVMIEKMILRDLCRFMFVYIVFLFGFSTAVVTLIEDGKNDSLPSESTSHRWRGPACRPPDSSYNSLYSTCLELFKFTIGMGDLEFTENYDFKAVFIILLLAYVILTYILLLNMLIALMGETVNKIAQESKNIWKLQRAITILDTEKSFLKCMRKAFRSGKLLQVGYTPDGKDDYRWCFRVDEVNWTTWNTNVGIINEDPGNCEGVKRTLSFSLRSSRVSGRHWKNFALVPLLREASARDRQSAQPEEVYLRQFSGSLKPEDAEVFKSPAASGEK

Rattus norvegicus [3] = test: Dose normalized AUC in po dosed rat; type: ADME, organism-based; conditions: in vivo
Rattus norvegicus [4] = test: Inhibition of capsaicin-induced micturition frequency in Sprague-Dawley rat overactive bladder model at 3 mg/kg, iv relative to control; type: functional
Rattus norvegicus [5] = test: Inhibition of capsaicin-induced micturition frequency in Sprague-Dawley rat overactive bladder model at 10 mg/kg, iv relative to control; type: functional
[6] = Oral bioavailability in Sprague-Dawley rat; type: ADME, organism-based; conditions: in vivo
Rattus norvegicus [7] = test: Inhibition of cyclophosphamide-induced bladder capacity in iv dosed Sprague-Dawley rat cystitis model; type: functional, organism-based
[8] = Solubility of the compound; type: physicochemical
Rattus norvegicus [9] = test: Inhibition of cyclophosphamide-induced voiding frequency in iv dosed Sprague-Dawley rat cystitis model; type: functional, organism-based

IC50 [1] [nM]	IC50 [2] [nM]	Compound	also measured
> 1000	> 1000	O=C(NCc1cccc(O)c1)Nc1cccc(F)c1	–
–	34	O=C(Cc1cccc2ccc(O)cc12)Nc1ccc(Cl)c(C(F)(F)F)c1	–
4.5	3.4	O=C(Nc1ccc(Cl)c(C(F)(F)F)c1)Nc1c(Cl)ccc2ccc(O)cc12	AUC (Rattus norvegicus [3]): 3 ng·h/mL
16	12	O=C(Nc1ccc(Cl)cc1Cl)Nc1cccc2ccc(O)cc12	–
64	87	O=C(Nc1ccccc1C(F)(F)F)Nc1cccc2ccc(O)cc12	–
4.9	5.4	O=C(Nc1ccc(C(F)(F)F)cc1)Nc1cccc2ccc(O)cc12	–
270	520	O=C(Nc1cccc(C(=O)O)c1)Nc1cccc2ccc(O)cc12	–
–	–	O=C(Nc1ccc(Cl)c(C(F)(F)F)c1)Nc1c(Br)c(Br)cc2ccc(O)cc12	inhibition in vivo at 3 mg/kg (Rattus norvegicus [4]): 11%; inhibition in vivo at 10 mg/kg (Rattus norvegicus [5]): 65%; AUC (Rattus norvegicus [3]): 596 ng·h/mL
4.5	3.5	O=C(Nc1cccc(C(F)(F)F)c1)Nc1cccc2ccc(O)cc12	–
–	> 1000	O=C(Cc1cccc(F)c1)Nc1cccc2ccc(O)cc12	–
–	–	COc1ccc2cccc(NC(=O)Nc3ccc(Cl)c(C(F)(F)F)c3)c2c1	AUC (Rattus norvegicus [3]): 114 ng·h/mL
–	–	O=C(Nc1ccc(Cl)c(C(F)(F)F)c1)Nc1c(Cl)c(Cl)cc2ccc(O)cc12	bioavailability [6]: 3%; inhibition in vivo at 10 mg/kg (Rattus norvegicus [5]): 55%; AUC (Rattus norvegicus [3]): 84 ng·h/mL; inhibition (Rattus norvegicus [7]): Dose-dependent effect; solubility [8]: 0.03 µg/mL (≈ 0.0667 µM); inhibition (Rattus norvegicus [9]): Dose-dependent effect
39	28	CC(=O)c1cccc(NC(=O)Nc2cccc3ccc(O)cc23)c1	–
–	–	O=C(Nc1ccc(Cl)c(C(F)(F)F)c1)Nc1c(Cl)c(Br)cc2ccc(O)cc12	inhibition in vivo at 3 mg/kg (Rattus norvegicus [4]): 88%; AUC (Rattus norvegicus [3]): 477 ng·h/mL
8.6	8	COc1cccc(NC(=O)Nc2cccc3ccc(O)cc23)c1	–
7.1	3.9	CSc1cccc(NC(=O)Nc2cccc3ccc(O)cc23)c1	–
1.6	1.7	CCOC(=O)c1cccc(NC(=O)Nc2cccc3ccc(O)cc23)c1	–
14	7.5	O=C(Nc1cccc([N+](=O)[O-])c1)Nc1cccc2ccc(O)cc12	–
